# According to paper PMC7660225, “New Chemical Probe Targeting Bacterial NAD Kinase” (Molecules, 2020):
# pKi: −log10 of the molar value.
# What was measured:
# recombinant LmNADK1 = biological target: T1, recombinant LmNADK1 (Listeria monocytogenes serovar 1/2a, UniProt Q8Y8D7); test: LmNADK1 inhibition, coupling assay (Ki measurements); format: biochemical; conditions: for pKi: competitive inhibition fit, 30 °C, pH 7.0, inhibitor 0, 10, 25 or 50 µM, 0-2 mM NAD, 0.1 µM LmNADK1; for inhibitory potency compared to inhibitor 1 (NKI1): result in words
# T1 construct: made in house
# T1 sequence (Q8Y8D7 1-264): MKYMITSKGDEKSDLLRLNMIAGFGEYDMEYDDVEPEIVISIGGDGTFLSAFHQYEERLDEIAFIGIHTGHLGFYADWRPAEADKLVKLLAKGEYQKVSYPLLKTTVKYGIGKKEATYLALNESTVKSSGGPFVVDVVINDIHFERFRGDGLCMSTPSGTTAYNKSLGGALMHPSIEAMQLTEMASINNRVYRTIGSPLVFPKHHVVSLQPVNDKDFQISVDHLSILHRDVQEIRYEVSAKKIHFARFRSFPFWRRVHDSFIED
# Protocol: Another important parameter to select the chemical probe is that it retains its binding properties. The potency of ligands 2–5 as inhibitors of recombinant LmNADK1 in vitro were determined using the coupling assay described previously.
# Activity was measured at 30 °C in 50 mM Bis-Tris pH 7.0, 2 mM sodium citrate, 1 mM MgCl2. Reaction mixtures contained 0–2 mM NAD, 4 mM MgATP, 5 mM Glucose 6-phosphate, 1 U/mL Glucose 6-phosphate dehydrogenase and 0.1 µM LmNADK1. Steady state rate constants (kss) were calculated by fitting the initial (first 500–1000 s) linear part of the NADP production time courses per NADK. Inhibitors were tested at 4 concentrations: 0, 10, 25 or 50 µM and Ki values were determined using the competitive inhibition equation, kss = kcat × NAD/(KM × (1 + [inhibitor]/Ki) + NAD), with GraFit software (v 7.0.3).
# Figure 5 Determination of inhibition constants of compounds 1–5. Inhibitor concentrations were 0 (circles), 10 (triangles), 25 (squares) and 50 (stars) µM. Secondary plots (kss as a function of initial NAD concentration) were fitted assuming a competitive inhibition using GraFit software (v 7.0.3) and are presented here as double reciprocal plots. […] TEXT PRINTED IN THE PICTURE: NKI1: Ki (μM): 17.2 | 2: Ki (μM): 347 | 3: Ki (μM): 52.2 | 4: Ki (μM): 23.8 | 5: Ki (μM): 5.6
# crystallized LmNADK1 = biological target: T2, crystallized LmNADK1 (Listeria monocytogenes serovar 1/2a, UniProt Q8Y8D7); test: X-ray crystallography of soaked LmNADK1 crystals; format: binding; conditions: soaking procedure; structures refined to 2.2-2.4 Å
# T2 construct: made in house
# T2 sequence (Q8Y8D7 1-264): T1 sequence (Q8Y8D7 1-264)
# Protocol: A prerequisite to use a chemical probe is that it retains its binding affinity for its target. The binding properties of the four synthesized derivatives 2–5 were analyzed by X-ray crystallography. We checked the binding properties of these new di-adenosine derivatives by determining their complex with crystallized LmNADK1. The soaking procedure described previously for inhibitor 1 [18] was used to obtain crystals of the target in complex with compounds 2-5. The X-ray structures were solved by molecular replacement using PDB6RGC [18] as a starting template and refined to 2.2–2.4 Å resolution.
# S. aureus = tested on: S. aureus; design: method as in PMID 32017533; conditions: including antibiotic-resistant strains; cited from earlier work
Compound,pKi (recombinant LmNADK1),inhibitory potency compared to inhibitor 1 (NKI1) (recombinant LmNADK1),complex formation / binding mode with crystallized LmNADK1 (crystallized LmNADK1),activity in mice infected with S. aureus (S. aureus)
"NCCNc1ncnc2c1ncn2C1OC(COCC#Cc2nc3c(N)ncnc3n2C2OC(CO)C(O)C2O)C(O)C1O (centres unmarked) [Compound 2, 8-[3-(N^6-2-Aminoethyl-5’-O-adenosinyl)propargyl]adenosine]",3.46,sharp decrease in inhibitory potency,led to a complex with the target,–
Nc1ncnc2c1ncn2C1OC(COCC#Cc2nc3c(N)ncnc3n2C2OC(CO)C(O)C2O)C(O)C1O (centres unmarked) [NKI1],4.76,–,–,active in mice infected with S. aureus
"NCCCN(CC#Cc1nc2c(N)ncnc2n1C1OC(CO)C(O)C1O)CC1OC(n2cnc3c(N)ncnc32)C(O)C1O (centres unmarked) [Compound 5, 5’-[N-3-Aminopropyl-N-(3-(adenosin-8-yl)propargyl)amino]-5’-deoxyadenosine]",5.25,slightly increased,very similar to that of NKI1,–
"NCCCC(=O)NCC1OC(n2c(C#CCOCC3OC(n4cnc5c(N)ncnc54)C(O)C3O)nc3c(N)ncnc32)C(O)C1O (centres unmarked) [Compound 4, 5’-O-[3-(5’-(4-Aminobutylamido)-5’-deoxy-adenosin-8-yl)prop-2-yn-1-yl]-adenosine]",4.62,slightly reduced inhibitory potency,very similar to that of NKI1,–
"NCCCCNc1ncnc2c1ncn2C1OC(COCC#Cc2nc3c(N)ncnc3n2C2OC(CO)C(O)C2O)C(O)C1O (centres unmarked) [Compound 3, 8-[3-(N^6-4-Aminobutyl-5’-O-adenosinyl)propargyl]adenosine]",4.28,sharp decrease in inhibitory potency,failed to yield complex,–
